Article PMC7503767, “Alkoxyamines Designed as Potential Drugs against Plasmodium and Schistosoma Parasites” (Molecules, 2020)
Read-outs that look alike come from different tables or passages of the source. Marks after values point to notes of the source that are not given here.

Assays:
[1] = Homolysis of the NO–C bond measured by EPR
Method: Homolysis rate constants kd’ were measured by EPR and estimated using Equation (1) as reported many times in the literature. Further, Ea and kd were estimated using Equation (2). (1) ln([nitroxide]∞−[nitroxide]t/[nitroxide]∞)=−kd·t (2) Ea=−RT ln([…] kd′ )

[2] = test system: Adult S. mansoni; assay: In vitro antischistosomal activity on adult worms; type: cell-based, Schistosoma mansoni; conditions: for Mean (±SD) survival time – Adult S. mansoni / Time for the death of 100% worms: 100 µg/mL; for Mean (±SD) survival time – Adult S. mansoni: observation up to 8 h (Table S1)
Text: The NMRI strain of Schistosoma mansoni was used for the experimentations. The parasite was maintained on an albino variety of Biomphalaria glabrata from Brazil (intermediate host) and in Golden Hamsters, Mesocricetus auratus (Janvier Labs, Le Genest-Saint-Isle, France). Detailed methods, for mollusk and hamster infections and for parasite recovery, were previously described.
Adult worms were recovered between 42 and 47 days after infection by hepatic perfusion technique. Twenty to fifty adult worms were disposed in 12-well Falcon® plate containing 2 mL of RPMI 1640 (supplemented with L-glutamine and Hepes 25 mM) and stored in an incubator chamber (37 °C; 5% CO2). Drug preparation started with dissolution of the drug in DMSO to give a 100 mg/mL stock solution. The dilution was complemented with Tween 80 and RPMI in order to obtain the following final ratio dilution: RPMI 1640/Tween 80/DMSO, 1000/0.95/3.8, v/v/v. The drug solution was added to Falcon plates that contained adult worms. The S. mansoni cultures were then incubated with each drug at a final concentration of 100 µg/mL. Positive control was carried out with a solution of praziquantel (Merck KGaA, Darmstadt, Germany) at a concentration of 100 µg/mL. Negative control was carried out with the same RPMI 1640/Tween 80/DMSO solution, but without any drug. Each test was performed in duplicate. Every hour, moving worms were counted in order to define the percentage of survivors. Parasites showing no body contractions during a 30 s observation were considered as dead. Observations were extended to 8 h. Mean survival times (± standard deviation) were calculated for each drug using Kaplan–Meier survival analyses.

[3] = test system: P. falciparum chloroquine-resistant strain FcB1-Columbia; assay: Antiplasmodial screen at 10 µM and chemosensitivity assay (SYBR Green I), FcB1-Columbia; type: cell-based, Plasmodium falciparum; conditions: FcB1-Columbia strain, read-out: IC50 on P. falciparum
[4] = adult S. mansoni, observation up to 8 h

SMILES	Mean (±SD) survival time – Adult S. mansoni [2] [h]	Time for the death of 100% worms [2, 4] [h]	IC50 [3] [µM]	other results
CCOP(=O)(OCC)C(N(OC(C)c1cc(-c2ccccc2)cc(-c2ccccc2)c1)C(C)(C)CO[Si](C)(C)C(C)(C)C)C(C)(C)C (stereo not shown) [(RS/SR)-6G, Diethyl(1-((1-([1,1′:3′,1′′-terphenyl]-5′-yl)ethoxy)(1-((tert-butyldimethylsilyl)oxy)-2-methylpropan-2-yl)amino)-2,2-dimethylpropyl)phosphonate]				activation energy Ea ([1]; t-BuPh): 124.7 kJ/mol; re-estimated homolysis rate constant kd at 120 °C ([1]; t-BuPh): 6.50 10^−3 s^−1; homolysis rate constant kd′ ([1]; t-BuPh, 92 °C): 3.5 10^−4s^−1
CCOP(=O)(OCC)C(N(OC(CN)c1ccccn1)C(C)(C)C)C(C)(C)C (stereo not shown) [(RR/SS)-1g]	1.9 ± 0.1	2	> 10	
CCOP(=O)(OCC)C(N(OC(C)c1ncc[nH]1)C(C)(C)C)C(C)(C)C (stereo not shown) [(RR/SS)-1k]	1.0 ± 0.05	1	> 10	S. mansoni Mean Survival Time ([2]; adult S. mansoni, single dose 100 µg/mL, observation up to 8 h): 1.0 ± 0.05 h
CCOP(=O)(OCC)C(N(OC(C)c1cccnc1)C(C)(C)C)C(C)(C)C (stereo not shown) [(RR/SS)-1b]			22.5	
CCOP(=O)(OCC)C(N(OC(CNC(=O)C(F)(F)F)c1ccccc1)C(C)(C)C)C(C)(C)C (stereo not shown) [(RR/SS)-1E]	5.0 ± 0.5	6	> 10	
CCOP(=O)(OCC)C(N(OC(C)c1cc(-c2ccccn2)nc(-c2ccccn2)c1)C(C)(C)CO[Si](C)(C)C(C)(C)C)C(C)(C)C (stereo not shown) [(RR/SS)-6F, Diethyl(1-((1-([2,2′:6′,2′′-terpyridin]-4′-yl)ethoxy)(1-((tert-butyldimethylsilyl)oxy)-2-methylpropan-2-yl)amino)-2,2-dimethylpropyl)phosphonate]				activation energy Ea ([1]; t-BuPh): 123.8 kJ/mol; half-lifetime t1/2 at 37 °C ([1]; t-BuPh): 24 days; re-estimated homolysis rate constant kd at 120 °C ([1]; t-BuPh): 8.5 10^−3 s^−1; homolysis rate constant kd′ ([1]; t-BuPh, 81 °C): 1.4 10^−4s^−1
CCOP(=O)(OCC)C(N(OC(C)c1ccc(C(=O)OC)cc1)C(C)(C)C)C(C)(C)C (stereo not shown) [(RS/SR)-1x]	2.4 ± 0.3	4	> 10	
CCOP(=O)(OCC)C(N(OC(C)c1ccc(N)cc1)C(C)(C)C)C(C)(C)C (stereo not shown) [(RS/SR)-1w]	> 8	> 8	> 10	
CCOP(=O)(OCC)C(N(OC(C)c1ccc(N)cc1)C(C)(C)C)C(C)(C)C (stereo not shown) [(RR/SS)-1w]	2.1 ± 0.1	3	> 10	
CCOP(=O)(OCC)C(N(OC(C)c1ccc([N+](=O)[O-])cc1)C(C)(C)C)C(C)(C)C (stereo not shown) [(RR/SS)-1v]	3.4 ± 0.2	4	> 10	
CCOP(=O)(OCC)C(N(OC(C)n1ccnc1)C(C)(C)C)C(C)(C)C (stereo not shown) [(RS/SR)-1o]	1.1 ± 0.1	2	25	
CCOP(=O)(OCC)C(N(OC(C)c1ncc[nH]1)C(C)(C)C)C(C)(C)C (stereo not shown) [(RS/SR)-1k]	> 8	> 8	> 10	
CCOP(=O)(OCC)C(N(OC(C)c1ccccc1)C(C)(C)CO)C(C)(C)C (stereo not shown) [(RS/SR)-2z]	> 8	> 8	> 10	
CCOP(=O)(OCC)C(N(OC(COC)c1ccccc1)C(C)(C)C)C(C)(C)C (stereo not shown) [(RS/SR)-1D]	3.8 ± 0.5	6	> 10	
CCOP(=O)(OCC)C(N(OC(CNC(=O)C(F)(F)F)c1ccccn1)C(C)(C)C)C(C)(C)C (stereo not shown) [(RS/SR)-1h]	> 8	> 8	> 10	
CCOP(=O)(OCC)[C@@H](N(O[C@@H](COC(C)=O)c1ccccn1)C(C)(C)C)C(C)(C)C (relative stereo) [(RR/SS)-1j]	> 8	> 8	> 10	

SMILES	Mean (±SD) survival time – Adult S. mansoni [2] [h]	Time for the death of 100% worms [2, 4] [h]	IC50 [3] [µM]	other results
CCOP(=O)(OCC)C(N(OC(CN)c1ccncc1)C(C)(C)C)C(C)(C)C (stereo not shown) [(RS/SR)-1f]			> 10	
CCOP(=O)(OCC)C(N(OC(C)c1cc(-c2ccccc2)cc(-c2ccccc2)c1)C(C)(C)CO[Si](C)(C)C(C)(C)C)C(C)(C)C (stereo not shown) [(RR/SS)-6G, Diethyl(1-((1-([1,1′:3′,1′′-terphenyl]-5′-yl)ethoxy)(1-((tert-butyldimethylsilyl)oxy)-2-methylpropan-2-yl)amino)-2,2-dimethylpropyl)phosphonate]				half-life ([1]; half-lifetime t1/2 at 37 °C, t-BuPh): 33.4 days; activation energy Ea ([1]; t-BuPh): 125.5 kJ/mol; re-estimated homolysis rate constant kd at 120 °C ([1]; t-BuPh): 5.10 10^−3 s^−1; homolysis rate constant kd′ ([1]; t-BuPh, 92 °C): 2.7 10^−4s^−1
CCOP(=O)(OCC)C(N(OC(CN)c1ccccn1)C(C)(C)C)C(C)(C)C (stereo not shown) [(RS/SR)-1g]	2.6 ± 0.3	4	> 10	
CCOP(=O)(OCC)C(N(OC(C)c1cc(-c2ccccn2)nc(-c2ccccn2)c1)C(C)(C)C)C(C)(C)C (stereo not shown) [1F]			> 10	
CCOP(=O)(OCC)C(N(OC(C)c1ccc(C(=O)OC)cc1)C(C)(C)C)C(C)(C)C (stereo not shown) [(RR/SS)-1x]	> 8	> 8	> 10	
CCOP(=O)(OCC)[C@@H](N(O[C@H](COC(C)=O)c1ccccn1)C(C)(C)C)C(C)(C)C (relative stereo) [(RS/SR)-1j]	> 8	> 8	> 10	
CCOP(=O)(OCC)C(N(OC(C)c1cc[n+]([O-])cc1)C(C)(C)C)C(C)(C)C (stereo not shown) [(RR/SS)-1d]	> 8	> 8	> 10	
CCOP(=O)(OCC)C(N(OC(C)c1ccc([N+](=O)[O-])cc1)C(C)(C)C)C(C)(C)C (stereo not shown) [(RS/SR)-1v]	> 8	> 8	> 10	
CCOP(=O)(OCC)C(N(OC(C)c1c[nH]cn1)C(C)(C)C)C(C)(C)C (stereo not shown) [(RS/SR)-1p]	1.4 ± 0.3	3	20.5	
CCOP(=O)(OCC)C(N(OC(C)c1ccccn1)C(C)(C)CO)C(C)(C)C (stereo not shown) [(RS/SR)-2c]			> 10	
CCOP(=O)(OCC)C(N(OC(C)c1cccnc1)C(C)(C)C)C(C)(C)C (stereo not shown) [(RS/SR)-1b]				IC50 ([3]; listed as (RS/SR)-1B): > 10 µM
CCOP(=O)(OCC)C(N(OC(C)c1cc(-c2ccccn2)nc(-c2ccccn2)c1)C(C)(C)CO[Si](C)(C)C(C)(C)C)C(C)(C)C (stereo not shown) [(RS/SR)-6F, Diethyl(1-((1-([2,2′:6′,2′′-terpyridin]-4′-yl)ethoxy)(1-((tert-butyldimethylsilyl)oxy)-2-methylpropan-2-yl)amino)-2,2-dimethylpropyl)phosphonate]				activation energy Ea ([1]; t-BuPh): 121.7 kJ/mol; half-lifetime t1/2 at 37 °C ([1]; t-BuPh): 10 days; re-estimated homolysis rate constant kd at 120 °C ([1]; t-BuPh): 16.3 10^−3 s^−1; homolysis rate constant kd′ ([1]; t-BuPh, 81 °C): 2.7 10^−4s^−1
CCOP(=O)(OCC)C(N(OC(C)c1cc(-c2ccccc2)cc(-c2ccccc2)c1)C(C)(C)CO)C(C)(C)C (stereo not shown) [(RS/SR)-2G, Diethyl(1-((1-([1,1′:3′,1′′-terphenyl]-5′-yl)ethoxy)(1-hydroxy-2-methylpropan-2-yl)amino)-2,2-dimethylpropyl)phosphonate]	> 8	> 8		activation energy Ea ([1]; MeOH/water 2:1 pH = 7.0): 122.1 kJ/mol; half-lifetime t1/2 at 37 °C ([1]; MeOH/water 2:1 pH = 7.0): 12.7 days; re-estimated homolysis rate constant kd at 120 °C ([1]; MeOH/water 2:1 pH = 7.0): 14.4 10^−3 s^−1; homolysis rate constant kd′ ([1]; MeOH/water 2:1 pH = 7.0, 81 °C): 2.3 10^−4s^−1; activation energy Ea ([1]; t-BuPh): 120.8 kJ/mol; half-lifetime t1/2 at 37 °C ([1]; t-BuPh): 7.5 days; re-estimated homolysis rate constant kd at 120 °C ([1]; t-BuPh): 21.6 10^−3 s^−1; homolysis rate constant kd′ ([1]; t-BuPh, 81 °C): 3.7 10^−4s^−1
CCOP(=O)(OCC)C(N(OC(C)c1ccccn1)C(C)(C)C)C(C)(C)C (stereo not shown) [(RR/SS)-1c]			> 10	
CC(ON1C(C)(C)CCCC1(C)C)c1cc(-c2ccccn2)nc(-c2ccccn2)c1 (stereo not shown) [9F]				activation energy Ea ([1]; MeOH/water 1:1 pH = 7.4): 131.9 ^k kJ/mol; re-estimated homolysis rate constant kd at 120 °C ([1]; MeOH/water 1:1 pH = 7.4): 0.7 ^k 10^−3 s^−1; half-lifetime t1/2 at 37 °C ([1]; MeOH/water 1:1 pH = 7.4 (aqueous medium)): 385 ^k day; homolysis rate constant kd′ ([1]; MeOH/water 1:1 pH = 7.4, 90 °C): 0.25 ^k 10^−4s^−1; activation energy Ea ([1]; t-BuPh): 131.0 ^k kJ/mol; half-lifetime t1/2 at 37 °C ([1]; t-BuPh): 385 ^k day; re-estimated homolysis rate constant kd at 120 °C ([1]; t-BuPh): 0.95 ^k 10^−3 s^−1; homolysis rate constant kd′ ([1]; t-BuPh, 111 °C): 3.7 ^k 10^−4s^−1
